Converted amounts (≈) assume the structure as drawn.
Experiments:
Enterococcus faecium [1] = assay: Antibacterial activity against vancomycin B-resistant Enterococcus faecium SR-23598; format: functional; conditions: SR23598
Enterococcus faecium [2] = assay: Antibacterial activity against vancomycin-susceptible Enterococcus faecium SR-16972; format: functional; conditions: SR16972
Enterococcus faecalis [3] = assay: Antibacterial activity against vancomycin-susceptible Enterococcus faecalis SR1004; format: functional
Enterococcus faecalis [4] = assay: Antibacterial activity against vancomycin A-resistant Enterococcus faecalis SR-7914; format: functional; conditions: SR7914
Enterococcus faecalis [5] = assay: Antibacterial activity against vancomycin B-resistant Enterococcus faecalis SR-23630; format: functional; conditions: SR23630
Staphylococcus aureus [6] = assay: Antibacterial activity against vancomycin A-resistant Staphylococcus aureus VRS2; format: functional
Staphylococcus aureus [7] = assay: Antibacterial activity against methicillin-resistant vancomycin-susceptible Staphylococcus aureus SR-3637; format: functional; conditions: SR3637
Staphylococcus aureus [8] = assay: Antibacterial activity against vancomycin-susceptible Staphylococcus aureus RN4220; format: functional
Enterococcus faecium [9] = assay: Antibacterial activity against vancomycin A-resistant Enterococcus faecium SR-7940; format: functional; conditions: SR7940
[10] = Binding affinity to 8-Amino-octanoyl-D-Ala-D-Ala peptide by surface plasmon resonance

Row | SMILES | MIC (Enterococcus faecium [1]) [µg/mL] | MIC (Enterococcus faecium [2]) [µg/mL] | MIC (Enterococcus faecalis [3]) [µg/mL] | MIC (Enterococcus faecalis [4]) [µg/mL] | MIC (Enterococcus faecalis [5]) [µg/mL] | MIC (Staphylococcus aureus [6]) [µg/mL] | MIC (Staphylococcus aureus [7]) [µg/mL] | MIC (Staphylococcus aureus [8]) [µg/mL] | MIC (Enterococcus faecium [9]) [µg/mL] | Kd [10] [µM]
1 | CN[C@H](CC(C)C)C(=O)N[C@H]1C(=O)N[C@@H](CC(N)=O)C(=O)N[C@H]2C(=O)N[C@H]3C(=O)N[C@H](C(=O)N[C@H](C(=O)O)c4cc(O)cc(O)c4-c4cc3ccc4O)[C@H](O)c3ccc(c(/C=C/c4ccccc4)c3)Oc3cc2cc(c3O[C@@H]2O[C@H](CO)[C@@H](O)[C@H](O)[C@H]2O[C@H]2C[C@](C)(N)[C@H](O)[C@H](C)O2)Oc2ccc(cc2Cl)[C@H]1O | > 64 | 1 (≈ 0.659 µM) | 1 (≈ 0.659 µM) | > 64 | 64 (≈ 42.2 µM) | 16 (≈ 10.5 µM) | 2 (≈ 1.32 µM) | 1 (≈ 0.659 µM) | > 64 | 
2 | CN[C@H](CC(C)C)C(=O)N[C@H]1C(=O)N[C@@H](CC(N)=O)C(=O)N[C@H]2C(=O)N[C@H]3C(=O)N[C@H](C(=O)N[C@H](C(=O)O)c4cc(O)cc(O)c4-c4cc3ccc4O)[C@H](O)c3ccc(c(/C=C/c4ccc(C(F)(F)F)cc4)c3)Oc3cc2cc(c3O[C@@H]2O[C@H](CO)[C@@H](O)[C@H](O)[C@H]2O[C@H]2C[C@](C)(N)[C@H](O)[C@H](C)O2)Oc2ccc(cc2Cl)[C@H]1O | 32 (≈ 20.2 µM) | 1 (≈ 0.631 µM) | 1 (≈ 0.631 µM) | 64 (≈ 40.4 µM) | 2 (≈ 1.26 µM) | 64 (≈ 40.4 µM) | 2 (≈ 1.26 µM) | 1 (≈ 0.631 µM) | > 64 | 
3 | CN[C@H](CC(C)C)C(=O)N[C@H]1C(=O)N[C@@H](CC(N)=O)C(=O)N[C@H]2C(=O)N[C@H]3C(=O)N[C@H](C(=O)N[C@H](C(=O)O)c4cc(O)cc(O)c4-c4cc3ccc4O)[C@H](O)c3ccc(c(/C=C/CCCc4ccccc4)c3)Oc3cc2cc(c3O[C@@H]2O[C@H](CO)[C@@H](O)[C@H](O)[C@H]2O[C@H]2C[C@](C)(N)[C@H](O)[C@H](C)O2)Oc2ccc(cc2Cl)[C@H]1O | > 64 | 2 (≈ 1.28 µM) | 1 (≈ 0.641 µM) | > 64 | > 64 | > 64 | 2 (≈ 1.28 µM) | 1 (≈ 0.641 µM) | > 64 | 
4 | CN[C@H](CC(C)C)C(=O)N[C@H]1C(=O)N[C@@H](CC(N)=O)C(=O)N[C@H]2C(=O)N[C@H]3C(=O)N[C@H](C(=O)N[C@H](C(=O)O)c4cc(O)cc(O)c4-c4cc3ccc4O)[C@H](O)c3ccc(c(/C=C/c4ccc(-c5ccccc5)cc4)c3)Oc3cc2cc(c3O[C@@H]2O[C@H](CO)[C@@H](O)[C@H](O)[C@H]2O[C@H]2C[C@](C)(N)[C@H](O)[C@H](C)O2)Oc2ccc(cc2Cl)[C@H]1O | 0.5 (≈ 0.314 µM) | 0.25 (≈ 0.157 µM) | 0.25 (≈ 0.157 µM) | 32 (≈ 20.1 µM) | 2 (≈ 1.26 µM) | > 64 | 0.5 (≈ 0.314 µM) | 0.25 (≈ 0.157 µM) | 64 (≈ 40.2 µM) | 
5 | CN[C@H](CC(C)C)C(=O)N[C@H]1C(=O)N[C@@H](CC(N)=O)C(=O)N[C@H]2C(=O)N[C@H]3C(=O)N[C@H](C(=O)N[C@H](C(=O)O)c4cc(O)cc(O)c4-c4cc3ccc4O)[C@H](O)c3ccc(c(-c4ccccc4)c3)Oc3cc2cc(c3O[C@@H]2O[C@H](CO)[C@@H](O)[C@H](O)[C@H]2O[C@H]2C[C@](C)(N)[C@H](O)[C@H](C)O2)Oc2ccc(cc2Cl)[C@H]1O | > 64 | 2 (≈ 1.34 µM) | 4 (≈ 2.68 µM) | > 64 | 64 (≈ 42.9 µM) | 64 (≈ 42.9 µM) | 4 (≈ 2.68 µM) | 4 (≈ 2.68 µM) | > 64 | 
6 | CN[C@H](CC(C)C)C(=O)N[C@H]1C(=O)N[C@@H](CC(N)=O)C(=O)N[C@H]2C(=O)N[C@H]3C(=O)N[C@H](C(=O)N[C@H](C(=O)O)c4cc(O)cc(O)c4-c4cc3ccc4O)[C@H](O)c3ccc(c(/C=C/c4ccc(OC)cc4)c3)Oc3cc2cc(c3O[C@@H]2O[C@H](CO)[C@@H](O)[C@H](O)[C@H]2O[C@H]2C[C@](C)(N)[C@H](O)[C@H](C)O2)Oc2ccc(cc2Cl)[C@H]1O | > 64 | 1 (≈ 0.646 µM) | 1 (≈ 0.646 µM) | > 64 | 32 (≈ 20.7 µM) | 16 (≈ 10.3 µM) | 2 (≈ 1.29 µM) | 1 (≈ 0.646 µM) | > 64 | 
7 | CCCCCC/C=C/c1cc2ccc1Oc1cc3cc(c1O[C@@H]1O[C@H](CO)[C@@H](O)[C@H](O)[C@H]1O[C@H]1C[C@](C)(N)[C@H](O)[C@H](C)O1)Oc1ccc(cc1Cl)[C@@H](O)[C@@H](NC(=O)[C@@H](CC(C)C)NC)C(=O)N[C@@H](CC(N)=O)C(=O)N[C@H]3C(=O)N[C@H]1C(=O)N[C@H](C(=O)N[C@H](C(=O)O)c3cc(O)cc(O)c3-c3cc1ccc3O)[C@@H]2O | > 64 | 2 (≈ 1.31 µM) | 2 (≈ 1.31 µM) | > 64 | > 64 | > 64 | 2 (≈ 1.31 µM) | 1 (≈ 0.656 µM) | > 64 | 3.77
8 | CN[C@H](CC(C)C)C(=O)N[C@H]1C(=O)N[C@@H](CC(N)=O)C(=O)N[C@H]2C(=O)N[C@H]3C(=O)N[C@H](C(=O)N[C@H](C(=O)O)c4cc(O)cc(O)c4-c4cc3ccc4O)[C@H](O)c3ccc(c(-c4ccccc4OC)c3)Oc3cc2cc(c3O[C@@H]2O[C@H](CO)[C@@H](O)[C@H](O)[C@H]2O[C@H]2C[C@](C)(N)[C@H](O)[C@H](C)O2)Oc2ccc(cc2Cl)[C@H]1O | > 64 | 4 (≈ 2.63 µM) | 8 (≈ 5.26 µM) | > 64 | > 64 | 64 (≈ 42.1 µM) | 8 (≈ 5.26 µM) | 4 (≈ 2.63 µM) | > 64 | 
9 | CCCCCC/C=C/c1cc2ccc1Oc1cc3cc(c1O[C@@H]1O[C@H](CO)[C@@H](O)[C@H](O)[C@H]1O[C@H]1C[C@](C)(N)[C@H](O)[C@H](C)O1)Oc1ccc(cc1/C=C/CCCCCC)[C@@H](O)[C@@H](NC(=O)[C@@H](CC(C)C)NC)C(=O)N[C@@H](CC(N)=O)C(=O)N[C@H]3C(=O)N[C@H]1C(=O)N[C@H](C(=O)N[C@H](C(=O)O)c3cc(O)cc(O)c3-c3cc1ccc3O)[C@@H]2O | > 64 | 32 (≈ 20 µM) | 32 (≈ 20 µM) | > 64 | > 64 | > 64 | 64 (≈ 40 µM) | 32 (≈ 20 µM) | > 64 | 11.6
10 | C/C=C/c1cc2ccc1Oc1cc3cc(c1O[C@@H]1O[C@H](CO)[C@@H](O)[C@H](O)[C@H]1O[C@H]1C[C@](C)(N)[C@H](O)[C@H](C)O1)Oc1ccc(cc1/C=C/C)[C@@H](O)[C@@H](NC(=O)[C@@H](CC(C)C)NC)C(=O)N[C@@H](CC(N)=O)C(=O)N[C@H]3C(=O)N[C@H]1C(=O)N[C@H](C(=O)N[C@H](C(=O)O)c3cc(O)cc(O)c3-c3cc1ccc3O)[C@@H]2O | > 64 | 1 (≈ 0.685 µM) | 2 (≈ 1.37 µM) | > 64 | > 64 | 64 (≈ 43.8 µM) | 2 (≈ 1.37 µM) | 1 (≈ 0.685 µM) | > 64 | 
11 | CN[C@H](CC(C)C)C(=O)N[C@H]1C(=O)N[C@@H](CC(N)=O)C(=O)N[C@H]2C(=O)N[C@H]3C(=O)N[C@H](C(=O)N[C@H](C(=O)O)c4cc(O)cc(O)c4-c4cc3ccc4O)[C@H](O)c3ccc(c(/C=C/CCCc4ccccc4)c3)Oc3cc2cc(c3O[C@@H]2O[C@H](CO)[C@@H](O)[C@H](O)[C@H]2O[C@H]2C[C@](C)(N)[C@H](O)[C@H](C)O2)Oc2ccc(cc2/C=C/CCCc2ccccc2)[C@H]1O | > 64 | 32 (≈ 19.2 µM) | 32 (≈ 19.2 µM) | > 64 | > 64 | > 64 | 64 (≈ 38.4 µM) | 32 (≈ 19.2 µM) | > 64 | 
12 | C/C=C/c1cc2ccc1Oc1cc3cc(c1O[C@@H]1O[C@H](CO)[C@@H](O)[C@H](O)[C@H]1O[C@H]1C[C@](C)(N)[C@H](O)[C@H](C)O1)Oc1ccc(cc1/C=C/CCCCCC)[C@@H](O)[C@@H]1NC(=O)[C@H](NC(=O)[C@@H]3NC(=O)[C@H](CC(N)=O)NC(=O)[C@H](NC(=O)[C@@H](CC(C)C)NC)[C@@H]2O)c2ccc(O)c(c2)-c2c(O)cc(O)cc2[C@@H](C(=O)O)NC1=O | > 64 | 32 (≈ 20.9 µM) | 32 (≈ 20.9 µM) | > 64 | > 64 | > 64 | 64 (≈ 41.8 µM) | 32 (≈ 20.9 µM) | > 64 | 
13 | CN[C@H](CC(C)C)C(=O)N[C@H]1C(=O)N[C@@H](CC(N)=O)C(=O)N[C@H]2C(=O)N[C@H]3C(=O)N[C@H](C(=O)N[C@H](C(=O)O)c4cc(O)cc(O)c4-c4cc3ccc4O)[C@H](O)c3ccc(c(Cl)c3)Oc3cc2cc(c3O[C@@H]2O[C@H](CO)[C@@H](O)[C@H](O)[C@H]2O[C@H]2C[C@](C)(N)[C@H](O)[C@H](C)O2)Oc2ccc(cc2Cl)[C@H]1O [VANCOMYCIN] | > 64 |  | 2 (≈ 1.38 µM) | > 64 |  | > 64 |  |  | > 64 | 3.39
14 | CN[C@H](CC(C)C)C(=O)N[C@H]1C(=O)N[C@@H](CC(N)=O)C(=O)N[C@H]2C(=O)N[C@H]3C(=O)N[C@H](C(=O)N[C@H](C(=O)O)c4cc(O)cc(O)c4-c4cc3ccc4O)[C@H](O)c3ccc(c(-c4ccc(OC)cc4)c3)Oc3cc2cc(c3O[C@@H]2O[C@H](CO)[C@@H](O)[C@H](O)[C@H]2O[C@H]2C[C@](C)(N)[C@H](O)[C@H](C)O2)Oc2ccc(cc2Cl)[C@H]1O | > 64 | 2 (≈ 1.31 µM) | 4 (≈ 2.63 µM) | > 64 | > 64 | > 64 | 4 (≈ 2.63 µM) | 4 (≈ 2.63 µM) | > 64 | 

— ChEMBL document CHEMBL1155426, “Discovery of a novel series of semisynthetic vancomycin derivatives effective against vancomycin-resistant bacteria” (J Med Chem, 2010)
